Assay results: article PMC9448386, “Discovery of novel conjugates of quinoline and thiazolidinone urea as potential anti-colorectal cancer agent” (Journal of Enzyme Inhibition and Medicinal Chemistry, 2022)

What was measured:
ABL = ABL (Homo sapiens, UniProt P00519); assay: Mobility shift assay, ABL; format: biochemical; conditions: mean of two independent experiments, SD shown
Procedure: (§1) Kinase inhibitory activity against HGFR, MST1R, ABL, PDGFRβ, AXL, FLT3, RET, c-Src, and VEGFR-2 was evaluated by the mobility shift assay. Detailed operation could be found in our previous research.

HGFR = HGFR (Homo sapiens, UniProt P08581); assay: Mobility shift assay, HGFR kinase inhibition; format: biochemical; conditions: mean of two independent experiments
Chain of HGFR (P08581 25-1390): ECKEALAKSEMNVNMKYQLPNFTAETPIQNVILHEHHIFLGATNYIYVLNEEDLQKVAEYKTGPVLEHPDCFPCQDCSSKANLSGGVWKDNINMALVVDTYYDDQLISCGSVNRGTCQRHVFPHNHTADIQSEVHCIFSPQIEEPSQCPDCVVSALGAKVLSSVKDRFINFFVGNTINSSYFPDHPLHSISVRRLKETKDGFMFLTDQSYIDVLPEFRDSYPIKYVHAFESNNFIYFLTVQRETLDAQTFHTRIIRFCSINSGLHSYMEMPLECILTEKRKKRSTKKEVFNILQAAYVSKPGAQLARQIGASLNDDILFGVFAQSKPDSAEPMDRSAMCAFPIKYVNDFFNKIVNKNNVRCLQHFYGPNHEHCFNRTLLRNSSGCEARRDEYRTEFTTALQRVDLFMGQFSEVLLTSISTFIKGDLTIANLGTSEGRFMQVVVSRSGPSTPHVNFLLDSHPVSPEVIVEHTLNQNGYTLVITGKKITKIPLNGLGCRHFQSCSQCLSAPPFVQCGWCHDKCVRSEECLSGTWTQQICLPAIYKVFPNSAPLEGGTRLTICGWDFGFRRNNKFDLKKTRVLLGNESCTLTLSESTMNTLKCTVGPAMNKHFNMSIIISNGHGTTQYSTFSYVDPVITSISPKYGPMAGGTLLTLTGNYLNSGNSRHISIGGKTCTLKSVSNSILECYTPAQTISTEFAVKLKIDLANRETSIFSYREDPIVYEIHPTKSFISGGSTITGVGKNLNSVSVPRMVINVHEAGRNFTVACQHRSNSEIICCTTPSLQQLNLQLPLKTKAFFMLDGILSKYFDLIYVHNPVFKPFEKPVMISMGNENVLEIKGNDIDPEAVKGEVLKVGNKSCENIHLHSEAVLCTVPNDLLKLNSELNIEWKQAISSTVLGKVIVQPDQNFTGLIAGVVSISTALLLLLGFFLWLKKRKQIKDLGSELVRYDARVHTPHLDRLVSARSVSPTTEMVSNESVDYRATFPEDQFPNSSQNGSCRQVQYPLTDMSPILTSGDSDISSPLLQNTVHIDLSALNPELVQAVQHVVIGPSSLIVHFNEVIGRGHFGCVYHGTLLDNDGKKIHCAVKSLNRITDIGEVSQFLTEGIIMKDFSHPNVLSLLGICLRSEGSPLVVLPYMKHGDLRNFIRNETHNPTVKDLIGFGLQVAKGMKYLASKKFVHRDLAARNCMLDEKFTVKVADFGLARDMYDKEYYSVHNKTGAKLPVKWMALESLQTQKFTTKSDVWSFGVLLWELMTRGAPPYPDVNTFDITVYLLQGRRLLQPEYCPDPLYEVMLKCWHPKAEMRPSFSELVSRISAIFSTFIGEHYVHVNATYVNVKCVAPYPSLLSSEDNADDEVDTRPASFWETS
Procedure: as §1

MST1R = MST1R (Homo sapiens, UniProt Q04912); assay: Mobility shift assay, MST1R kinase inhibition; format: biochemical; conditions: mean of two independent experiments
Chain of MST1R (Q04912 25-1400): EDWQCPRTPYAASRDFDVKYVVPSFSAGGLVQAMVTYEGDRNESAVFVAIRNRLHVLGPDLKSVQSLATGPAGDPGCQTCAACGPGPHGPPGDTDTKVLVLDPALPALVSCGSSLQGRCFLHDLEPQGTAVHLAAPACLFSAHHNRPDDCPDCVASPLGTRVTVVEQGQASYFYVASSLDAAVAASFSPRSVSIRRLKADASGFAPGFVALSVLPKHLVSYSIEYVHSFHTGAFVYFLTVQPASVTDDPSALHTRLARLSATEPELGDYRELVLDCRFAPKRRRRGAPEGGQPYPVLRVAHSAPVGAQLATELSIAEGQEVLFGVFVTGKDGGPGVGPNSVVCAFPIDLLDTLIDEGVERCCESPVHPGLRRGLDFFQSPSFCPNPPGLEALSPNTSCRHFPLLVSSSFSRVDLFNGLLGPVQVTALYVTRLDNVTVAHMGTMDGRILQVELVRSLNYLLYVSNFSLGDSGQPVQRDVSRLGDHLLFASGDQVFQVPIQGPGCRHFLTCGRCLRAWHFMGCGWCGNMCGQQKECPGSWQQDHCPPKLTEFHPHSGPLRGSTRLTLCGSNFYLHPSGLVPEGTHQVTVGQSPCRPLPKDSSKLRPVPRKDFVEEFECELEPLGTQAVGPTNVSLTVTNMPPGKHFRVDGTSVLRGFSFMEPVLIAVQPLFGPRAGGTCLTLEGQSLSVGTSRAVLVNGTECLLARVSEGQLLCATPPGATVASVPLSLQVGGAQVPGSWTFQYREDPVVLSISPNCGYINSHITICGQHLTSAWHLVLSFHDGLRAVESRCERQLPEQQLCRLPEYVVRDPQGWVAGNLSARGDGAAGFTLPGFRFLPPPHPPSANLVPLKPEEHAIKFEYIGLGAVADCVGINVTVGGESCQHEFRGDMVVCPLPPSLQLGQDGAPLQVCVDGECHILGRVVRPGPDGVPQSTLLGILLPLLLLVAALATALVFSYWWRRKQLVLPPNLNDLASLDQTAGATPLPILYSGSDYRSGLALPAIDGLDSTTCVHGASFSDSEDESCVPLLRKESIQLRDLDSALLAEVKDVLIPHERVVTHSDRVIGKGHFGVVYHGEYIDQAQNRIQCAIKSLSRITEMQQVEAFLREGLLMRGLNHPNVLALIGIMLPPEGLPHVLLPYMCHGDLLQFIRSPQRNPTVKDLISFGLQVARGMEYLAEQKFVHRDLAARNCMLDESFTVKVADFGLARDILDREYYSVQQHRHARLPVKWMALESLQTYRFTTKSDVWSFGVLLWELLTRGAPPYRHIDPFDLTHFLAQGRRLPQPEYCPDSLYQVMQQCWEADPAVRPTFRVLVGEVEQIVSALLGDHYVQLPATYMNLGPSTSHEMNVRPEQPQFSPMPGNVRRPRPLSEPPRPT
Procedure: as §1

AXL = molecular target: T1, AXL (Homo sapiens, UniProt P30530); assay: Mobility shift assay, AXL; format: biochemical; conditions: mean of two independent experiments, SD shown
T1 sequence (P30530 26-894): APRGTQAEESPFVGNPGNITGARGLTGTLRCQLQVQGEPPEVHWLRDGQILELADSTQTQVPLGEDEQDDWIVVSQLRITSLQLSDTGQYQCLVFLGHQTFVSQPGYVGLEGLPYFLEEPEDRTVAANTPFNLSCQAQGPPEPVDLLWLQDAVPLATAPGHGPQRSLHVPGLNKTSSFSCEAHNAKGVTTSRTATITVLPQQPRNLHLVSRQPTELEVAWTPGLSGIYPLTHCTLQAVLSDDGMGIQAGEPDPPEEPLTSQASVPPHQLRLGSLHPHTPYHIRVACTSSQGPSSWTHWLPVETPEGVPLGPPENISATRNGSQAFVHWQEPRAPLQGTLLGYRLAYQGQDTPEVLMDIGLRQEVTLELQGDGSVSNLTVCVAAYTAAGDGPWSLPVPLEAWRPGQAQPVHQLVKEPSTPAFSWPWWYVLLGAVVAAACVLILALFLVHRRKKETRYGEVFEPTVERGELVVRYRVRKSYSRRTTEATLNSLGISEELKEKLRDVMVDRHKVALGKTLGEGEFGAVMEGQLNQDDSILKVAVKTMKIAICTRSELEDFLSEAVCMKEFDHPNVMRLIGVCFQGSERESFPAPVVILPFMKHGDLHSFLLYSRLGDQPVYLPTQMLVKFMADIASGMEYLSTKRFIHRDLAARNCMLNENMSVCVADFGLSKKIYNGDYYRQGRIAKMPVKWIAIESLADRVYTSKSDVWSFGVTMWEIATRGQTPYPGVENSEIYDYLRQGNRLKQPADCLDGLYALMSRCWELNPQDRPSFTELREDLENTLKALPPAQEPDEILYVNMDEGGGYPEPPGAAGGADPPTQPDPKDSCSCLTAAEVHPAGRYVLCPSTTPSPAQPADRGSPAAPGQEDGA
Procedure: as §1

[1] = MTT assay, cytotoxicity against FHC cells; format: cell-based; conditions: FHC cells (normal colorectal mucosa epithelial cells); human normal colorectal mucosa epithelial cells; average of three separate determinations
Procedure: In order to investigate the cell selectivity index, the cytotoxicity of potent compounds against human normal colorectal mucosa epithelial cell FHC cells was determined.
Taking lead compound BC2021-104511-15i, Fruquintinib and Regorafenib as positive controls, the cytotoxic activity against HT-29, HCT-116, COLO-205 and FHC cell lines by MTT assay. Detailed operation could be found in our previous study.

RET = RET (Homo sapiens, UniProt P07949); assay: Mobility shift assay, RET; format: biochemical; conditions: mean of two independent experiments, SD shown
Chain of RET (P07949 29-1114): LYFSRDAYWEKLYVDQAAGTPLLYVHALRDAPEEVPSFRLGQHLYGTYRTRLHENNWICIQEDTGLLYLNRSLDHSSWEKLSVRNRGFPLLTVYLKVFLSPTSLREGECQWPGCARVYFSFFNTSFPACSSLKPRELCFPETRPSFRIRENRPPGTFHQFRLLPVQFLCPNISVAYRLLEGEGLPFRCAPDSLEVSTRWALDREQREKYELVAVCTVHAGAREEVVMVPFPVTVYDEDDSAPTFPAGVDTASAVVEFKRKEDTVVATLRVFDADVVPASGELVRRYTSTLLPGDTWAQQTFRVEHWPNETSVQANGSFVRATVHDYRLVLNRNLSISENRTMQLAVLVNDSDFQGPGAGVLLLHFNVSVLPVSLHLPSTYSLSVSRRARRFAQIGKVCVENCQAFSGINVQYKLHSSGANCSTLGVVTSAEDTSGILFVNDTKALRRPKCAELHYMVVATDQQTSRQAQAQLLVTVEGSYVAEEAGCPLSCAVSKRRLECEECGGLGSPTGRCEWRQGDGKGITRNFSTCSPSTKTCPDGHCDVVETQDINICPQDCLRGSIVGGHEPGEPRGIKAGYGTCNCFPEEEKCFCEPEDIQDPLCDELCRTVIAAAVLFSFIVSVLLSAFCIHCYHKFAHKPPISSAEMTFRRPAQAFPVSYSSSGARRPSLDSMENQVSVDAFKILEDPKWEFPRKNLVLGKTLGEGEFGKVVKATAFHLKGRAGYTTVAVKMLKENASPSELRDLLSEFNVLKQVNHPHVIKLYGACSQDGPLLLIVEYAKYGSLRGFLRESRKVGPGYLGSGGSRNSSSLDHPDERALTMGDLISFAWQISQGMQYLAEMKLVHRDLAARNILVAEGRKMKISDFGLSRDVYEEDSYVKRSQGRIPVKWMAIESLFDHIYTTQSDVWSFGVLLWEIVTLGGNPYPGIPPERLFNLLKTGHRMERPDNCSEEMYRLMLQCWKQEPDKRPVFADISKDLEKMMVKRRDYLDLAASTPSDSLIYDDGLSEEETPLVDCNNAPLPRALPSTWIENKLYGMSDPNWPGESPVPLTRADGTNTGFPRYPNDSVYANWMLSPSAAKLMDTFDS
Procedure: as §1

PDGFRβ = PDGFRβ (Homo sapiens, UniProt P09619); assay: Mobility shift assay, PDGFRβ; format: biochemical; conditions: mean of two independent experiments, SD shown
Chain of PDGFRβ (P09619 33-1106): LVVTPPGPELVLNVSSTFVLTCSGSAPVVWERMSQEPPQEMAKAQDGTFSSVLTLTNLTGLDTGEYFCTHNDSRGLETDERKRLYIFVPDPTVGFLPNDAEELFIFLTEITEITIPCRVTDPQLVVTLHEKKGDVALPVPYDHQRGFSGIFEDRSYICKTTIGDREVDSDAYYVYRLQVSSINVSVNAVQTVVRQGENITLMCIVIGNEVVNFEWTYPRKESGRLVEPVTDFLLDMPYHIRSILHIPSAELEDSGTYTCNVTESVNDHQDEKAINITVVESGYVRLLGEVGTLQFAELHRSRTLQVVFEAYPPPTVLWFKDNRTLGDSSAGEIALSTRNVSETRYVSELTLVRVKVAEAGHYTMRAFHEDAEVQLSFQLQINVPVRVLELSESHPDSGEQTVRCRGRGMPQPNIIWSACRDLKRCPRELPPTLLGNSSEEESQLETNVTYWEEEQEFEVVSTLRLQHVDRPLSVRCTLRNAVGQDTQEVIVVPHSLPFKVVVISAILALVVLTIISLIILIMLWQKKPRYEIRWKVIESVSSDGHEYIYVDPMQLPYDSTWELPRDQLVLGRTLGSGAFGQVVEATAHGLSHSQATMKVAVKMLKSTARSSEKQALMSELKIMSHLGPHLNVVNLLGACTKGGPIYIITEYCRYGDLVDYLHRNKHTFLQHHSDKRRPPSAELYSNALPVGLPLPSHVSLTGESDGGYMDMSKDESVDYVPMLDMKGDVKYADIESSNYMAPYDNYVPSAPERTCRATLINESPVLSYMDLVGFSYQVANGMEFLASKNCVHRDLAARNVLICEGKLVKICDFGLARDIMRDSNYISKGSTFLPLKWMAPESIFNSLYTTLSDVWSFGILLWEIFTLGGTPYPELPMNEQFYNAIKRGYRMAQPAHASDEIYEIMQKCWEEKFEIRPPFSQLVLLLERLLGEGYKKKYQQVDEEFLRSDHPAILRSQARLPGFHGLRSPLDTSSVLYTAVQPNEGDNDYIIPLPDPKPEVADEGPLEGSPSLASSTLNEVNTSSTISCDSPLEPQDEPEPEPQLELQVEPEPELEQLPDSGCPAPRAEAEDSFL
Procedure: as §1

FLT3 = molecular target: T2, FLT3 (Homo sapiens, UniProt P36888); assay: Mobility shift assay, FLT3; format: biochemical; conditions: mean of two independent experiments, SD shown
T2 sequence (P36888 27-993): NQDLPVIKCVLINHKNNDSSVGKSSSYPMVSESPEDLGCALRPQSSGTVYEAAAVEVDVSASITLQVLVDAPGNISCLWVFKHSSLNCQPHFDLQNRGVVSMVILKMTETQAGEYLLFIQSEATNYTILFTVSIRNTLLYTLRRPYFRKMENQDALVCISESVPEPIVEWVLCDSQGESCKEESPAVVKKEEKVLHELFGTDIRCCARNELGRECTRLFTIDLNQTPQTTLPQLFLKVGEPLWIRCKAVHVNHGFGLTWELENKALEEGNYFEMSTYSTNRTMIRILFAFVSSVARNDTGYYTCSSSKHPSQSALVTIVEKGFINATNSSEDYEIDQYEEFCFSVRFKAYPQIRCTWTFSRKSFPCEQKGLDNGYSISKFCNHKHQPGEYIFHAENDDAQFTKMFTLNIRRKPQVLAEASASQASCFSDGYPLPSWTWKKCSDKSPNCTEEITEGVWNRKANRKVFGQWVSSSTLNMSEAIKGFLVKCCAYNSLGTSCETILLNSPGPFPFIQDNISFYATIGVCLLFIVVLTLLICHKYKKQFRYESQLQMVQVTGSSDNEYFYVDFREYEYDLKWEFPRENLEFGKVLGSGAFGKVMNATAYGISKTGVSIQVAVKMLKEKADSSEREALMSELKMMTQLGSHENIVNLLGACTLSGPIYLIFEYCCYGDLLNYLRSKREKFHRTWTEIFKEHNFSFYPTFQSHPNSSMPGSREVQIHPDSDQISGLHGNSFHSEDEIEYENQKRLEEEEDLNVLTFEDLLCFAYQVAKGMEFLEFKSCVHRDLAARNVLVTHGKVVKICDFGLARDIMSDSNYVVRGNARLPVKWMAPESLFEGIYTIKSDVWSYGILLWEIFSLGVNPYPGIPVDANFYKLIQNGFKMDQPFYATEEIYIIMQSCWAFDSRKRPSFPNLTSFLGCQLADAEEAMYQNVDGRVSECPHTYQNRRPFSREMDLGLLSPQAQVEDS
Procedure: as §1

c-Src = c-Src (Homo sapiens, UniProt P12931); assay: Mobility shift assay, c-Src; format: biochemical; conditions: mean of two independent experiments, SD shown
Procedure: as §1

VEGFR-2 = VEGFR-2 (Homo sapiens, UniProt P35968); assay: Mobility shift assay, VEGFR-2; format: biochemical; conditions: mean of two independent experiments, SD shown
Procedure: as §1

COLO 205 cells = assay: Annexin V-FITC/PI apoptosis assay by flow cytometry; format: cell-based; conditions: 72 h; for total apoptosis (early apoptosis and advanced apoptosis): mean of three independent determinations
Procedure: Quantitative analysis of early-apoptotic cells, advanced-apoptotic cells and necrotic cells was determined. COLO 205 cells were stimulated with different concentrations of compound 10a for 72 h. […] The total apoptosis including early apoptosis and advanced apoptosis accounted for 58.8%, 29.3% and 21.0% (the mean value of three independent determinations) when COLO 205 cells were treated with compound 10a at the concentration of 1.0 μM, 0.33 μM and 0.11 μM, respectively.
COLO 205 cells (2.5 × 10^5) were seeded in two 12-well plates and treated with DMSO and compound 10a (0.11 μM, 0.33 μM and 1.0 μM) for 72 h (37 °C, 5% CO2). The cells were collected, centrifuged at 1000 rpm for 5 min, and then washed with cold PBS for twice. Apoptosis assays were conducted with CytoFLEX S (Beckman Coulter).

IC50 (ABL): 1680 ± 130 nM
IC50 (HGFR): 110 nM
IC50 (MST1R): 45 nM
IC50 (AXL): 950 ± 86 nM
IC50 (RET): 1270 ± 100 nM
IC50 (PDGFRβ): 1130 ± 120 nM
IC50 (FLT3): 6930 ± 730 nM
IC50 (c-Src): 420 ± 35 nM
IC50 (VEGFR-2): 1160 ± 110 nM
Structure (SMILES): COc1cc2c(Oc3ccc(NC(=O)NN4C(=O)CSC4c4c(F)cccc4F)cc3F)ccnc2cc1OC1CCN(CC(N)=O)CC1 (centres unmarked) [Compound 10a, 2–(4-((4–(4-(3–(2-(2,6-Difluorophenyl)-4-oxothiazolidin-3-yl)ureido)-2-fluorophenoxy)-6-methoxyquinolin-7-yl)oxy)piperidin-1-yl)acetamide]
IC50 [1]: > 10000 nM
total apoptosis (early apoptosis and advanced apoptosis) (COLO 205 cells; COLO 205, 0.11 μM): 21.0%
total apoptosis (early apoptosis and advanced apoptosis) (COLO 205 cells; COLO 205, 0.33 μM): 29.3%
total apoptosis (early apoptosis and advanced apoptosis) (COLO 205 cells; COLO 205, 1.0 μM): 58.8%
induction of apoptosis (COLO 205 cells; COLO 205, 0.11–1.0 μM): could effectively induce COLO 205 cells apoptosis in a dose-dependent manner
